Two compounds from ChEMBL document CHEMBL5678818, “Discovery of potent SOS1 inhibitors that block RAS activation via disruption of the RAS-SOS1 interaction” (Proc Natl Acad Sci U S A, 2019) can be followed below.

For test [1], the target named is Mitogen-activated protein kinase kinase kinase 14 (Homo sapiens) (UniProt Q99558). The test can be described thus: Inhibition of NIK (unknown origin) assessed as residual activity at 1000 nM by KINOMEscan analysis relative to control.
In test [2] the target is Serine/threonine-protein kinase MRCK gamma (Homo sapiens) (UniProt Q6DT37). Put plainly: Inhibition of DMPK2 (unknown origin) assessed as residual activity at 1000 nM by KINOMEscan analysis relative to control.
Sequence of Serine/threonine-protein kinase MRCK gamma (Homo sapiens) (Q6DT37 whole entry): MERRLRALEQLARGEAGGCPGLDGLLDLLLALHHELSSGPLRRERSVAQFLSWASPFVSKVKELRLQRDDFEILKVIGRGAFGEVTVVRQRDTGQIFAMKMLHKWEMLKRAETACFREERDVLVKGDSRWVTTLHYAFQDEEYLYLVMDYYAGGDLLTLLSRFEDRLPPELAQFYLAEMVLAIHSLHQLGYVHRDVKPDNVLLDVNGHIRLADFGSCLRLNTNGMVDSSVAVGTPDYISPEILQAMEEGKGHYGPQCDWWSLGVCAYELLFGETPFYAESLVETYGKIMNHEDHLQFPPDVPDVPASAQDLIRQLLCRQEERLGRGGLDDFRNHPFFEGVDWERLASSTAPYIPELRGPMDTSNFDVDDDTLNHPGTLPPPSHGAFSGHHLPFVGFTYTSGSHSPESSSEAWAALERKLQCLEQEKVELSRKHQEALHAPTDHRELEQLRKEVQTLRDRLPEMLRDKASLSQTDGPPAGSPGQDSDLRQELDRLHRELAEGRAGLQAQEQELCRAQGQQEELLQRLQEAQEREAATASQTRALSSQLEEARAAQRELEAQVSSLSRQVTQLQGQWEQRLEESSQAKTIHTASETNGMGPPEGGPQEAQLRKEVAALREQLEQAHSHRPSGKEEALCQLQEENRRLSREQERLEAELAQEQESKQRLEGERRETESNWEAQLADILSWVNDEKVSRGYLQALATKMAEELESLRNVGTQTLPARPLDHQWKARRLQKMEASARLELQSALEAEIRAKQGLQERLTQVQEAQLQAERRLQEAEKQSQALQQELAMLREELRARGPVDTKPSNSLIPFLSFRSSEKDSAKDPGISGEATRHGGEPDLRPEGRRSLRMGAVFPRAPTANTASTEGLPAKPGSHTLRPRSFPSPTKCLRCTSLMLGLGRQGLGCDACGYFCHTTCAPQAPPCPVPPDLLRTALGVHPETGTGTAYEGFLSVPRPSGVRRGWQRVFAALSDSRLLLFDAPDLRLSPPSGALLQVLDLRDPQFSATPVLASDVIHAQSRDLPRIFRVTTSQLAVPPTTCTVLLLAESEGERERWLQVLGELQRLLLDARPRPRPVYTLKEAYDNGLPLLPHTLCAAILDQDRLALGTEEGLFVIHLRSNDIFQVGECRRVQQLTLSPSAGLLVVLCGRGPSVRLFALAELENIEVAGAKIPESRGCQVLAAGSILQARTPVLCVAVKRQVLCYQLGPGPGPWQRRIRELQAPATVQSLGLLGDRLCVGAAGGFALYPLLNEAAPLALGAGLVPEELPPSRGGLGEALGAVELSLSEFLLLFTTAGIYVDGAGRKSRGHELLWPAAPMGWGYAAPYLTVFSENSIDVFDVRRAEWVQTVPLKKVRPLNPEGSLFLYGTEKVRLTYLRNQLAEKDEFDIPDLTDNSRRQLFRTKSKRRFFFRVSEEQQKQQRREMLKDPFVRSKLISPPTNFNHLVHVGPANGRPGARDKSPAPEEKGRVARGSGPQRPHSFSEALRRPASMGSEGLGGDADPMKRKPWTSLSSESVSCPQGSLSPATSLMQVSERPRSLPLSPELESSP
Test [3] concerns the target AP2-associated protein kinase 1 (Homo sapiens) (UniProt Q2M2I8). The test can be described thus: Inhibition of AAK1 (unknown origin) assessed as residual activity at 1000 nM by KINOMEscan analysis relative to control.
Test [4] concerns the target Serine/threonine-protein kinase N1 (Homo sapiens) (UniProt Q16512). Put plainly: Inhibition of PKN1 (unknown origin) assessed as residual activity at 1000 nM by KINOMEscan analysis relative to control.
Test [5] has as its target T1, Tyrosine-protein kinase ZAP-70 (Homo sapiens) (UniProt P43403).
T1 sequence (whole entry): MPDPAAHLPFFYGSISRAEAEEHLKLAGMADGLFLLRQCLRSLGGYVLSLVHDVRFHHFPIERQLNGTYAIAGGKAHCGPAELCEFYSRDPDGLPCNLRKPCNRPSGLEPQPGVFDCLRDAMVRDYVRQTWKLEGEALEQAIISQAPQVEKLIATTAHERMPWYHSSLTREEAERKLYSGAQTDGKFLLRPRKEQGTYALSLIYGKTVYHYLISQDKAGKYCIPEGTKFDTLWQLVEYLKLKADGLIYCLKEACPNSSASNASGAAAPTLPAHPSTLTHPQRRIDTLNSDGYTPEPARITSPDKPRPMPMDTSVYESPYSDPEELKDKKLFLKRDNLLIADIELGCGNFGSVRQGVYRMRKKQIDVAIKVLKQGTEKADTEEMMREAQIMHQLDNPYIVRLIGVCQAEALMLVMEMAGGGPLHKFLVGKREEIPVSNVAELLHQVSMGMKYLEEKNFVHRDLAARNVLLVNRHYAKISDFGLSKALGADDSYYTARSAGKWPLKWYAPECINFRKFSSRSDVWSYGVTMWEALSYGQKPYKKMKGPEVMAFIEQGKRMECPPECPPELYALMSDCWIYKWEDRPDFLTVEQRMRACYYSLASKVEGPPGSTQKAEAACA
Put plainly: Inhibition of ZAP70 (unknown origin) assessed as residual activity at 1000 nM by KINOMEscan analysis relative to control.

Test [6] concerns Tyrosine-protein kinase ABL1 (Homo sapiens), P00519 [Q252H]. Put plainly: Inhibition of phosphorylated ABL1 Q252H mutant (unknown origin) assessed as residual activity at 1000 nM by KINOMEscan analysis relative to control.
The subject of test [7] is Phosphatidylinositol 4,5-bisphosphate 3-kinase catalytic subunit alpha isoform (Homo sapiens), P42336 [I800L]. The test can be described thus: Inhibition of PIK3CA I800L mutant (unknown origin) assessed as residual activity at 1000 nM by KINOMEscan analysis relative to control.
In test [8] the target is Receptor-interacting serine/threonine-protein kinase 2 (Homo sapiens) (UniProt O43353). The test can be described thus: Inhibition of RIPK2 (unknown origin) assessed as residual activity at 1000 nM by KINOMEscan analysis relative to control.
Sequence of Receptor-interacting serine/threonine-protein kinase 2 (Homo sapiens) (O43353 whole entry): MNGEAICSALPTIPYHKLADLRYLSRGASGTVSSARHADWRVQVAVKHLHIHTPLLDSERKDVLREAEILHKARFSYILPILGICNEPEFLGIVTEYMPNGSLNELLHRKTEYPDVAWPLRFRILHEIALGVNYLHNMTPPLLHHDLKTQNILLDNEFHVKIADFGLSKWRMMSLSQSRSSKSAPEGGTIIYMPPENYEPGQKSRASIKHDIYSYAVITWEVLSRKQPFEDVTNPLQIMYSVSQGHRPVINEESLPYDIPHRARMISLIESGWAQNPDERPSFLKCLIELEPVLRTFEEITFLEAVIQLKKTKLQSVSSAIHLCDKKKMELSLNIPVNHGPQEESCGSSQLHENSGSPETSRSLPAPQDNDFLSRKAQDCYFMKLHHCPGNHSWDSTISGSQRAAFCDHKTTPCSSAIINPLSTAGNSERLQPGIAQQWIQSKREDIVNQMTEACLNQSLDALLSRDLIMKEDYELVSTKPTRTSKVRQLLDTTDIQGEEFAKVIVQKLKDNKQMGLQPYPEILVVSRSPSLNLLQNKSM
Test [9] deals with T2, Serine/threonine-protein kinase ULK1 (Homo sapiens) (UniProt O75385).
T2 sequence (whole entry): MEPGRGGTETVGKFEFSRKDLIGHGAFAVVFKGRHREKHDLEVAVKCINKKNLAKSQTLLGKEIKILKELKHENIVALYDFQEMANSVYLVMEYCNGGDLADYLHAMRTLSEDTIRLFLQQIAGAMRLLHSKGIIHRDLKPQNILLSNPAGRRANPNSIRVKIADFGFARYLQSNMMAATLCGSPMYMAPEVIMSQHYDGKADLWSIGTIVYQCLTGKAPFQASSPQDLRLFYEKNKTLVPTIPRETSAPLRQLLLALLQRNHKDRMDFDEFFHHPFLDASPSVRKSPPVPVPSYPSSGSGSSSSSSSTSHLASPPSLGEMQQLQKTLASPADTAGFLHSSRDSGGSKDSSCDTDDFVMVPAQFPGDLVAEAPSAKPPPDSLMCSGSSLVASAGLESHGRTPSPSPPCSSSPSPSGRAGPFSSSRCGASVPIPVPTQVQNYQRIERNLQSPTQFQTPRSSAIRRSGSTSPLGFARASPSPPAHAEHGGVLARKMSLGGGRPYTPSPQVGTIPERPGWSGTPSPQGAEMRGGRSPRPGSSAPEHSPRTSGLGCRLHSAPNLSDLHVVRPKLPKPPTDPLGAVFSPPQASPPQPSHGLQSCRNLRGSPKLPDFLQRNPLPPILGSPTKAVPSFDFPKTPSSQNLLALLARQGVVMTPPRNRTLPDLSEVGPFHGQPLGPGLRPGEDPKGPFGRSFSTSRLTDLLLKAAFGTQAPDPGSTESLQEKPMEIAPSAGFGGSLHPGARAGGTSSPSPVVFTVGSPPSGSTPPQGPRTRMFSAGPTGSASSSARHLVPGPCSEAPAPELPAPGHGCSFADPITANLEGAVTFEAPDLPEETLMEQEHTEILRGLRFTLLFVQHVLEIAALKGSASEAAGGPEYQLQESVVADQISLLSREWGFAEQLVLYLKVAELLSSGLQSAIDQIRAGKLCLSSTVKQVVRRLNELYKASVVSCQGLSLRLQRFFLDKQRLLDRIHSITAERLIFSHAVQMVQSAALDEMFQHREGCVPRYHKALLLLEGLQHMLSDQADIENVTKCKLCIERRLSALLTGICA
The test can be described thus: Inhibition of ULK1 (unknown origin) assessed as residual activity at 1000 nM by KINOMEscan analysis relative to control.

In test [10] the test system is Tyrosine-protein kinase ABL1 (Homo sapiens), P00519 [H396P]. Put plainly: Inhibition of nonphosphorylated ABL1 H396P mutant (unknown origin) assessed as residual activity at 1000 nM by KINOMEscan analysis relative to control.
Test [11] concerns the target T3, cAMP-dependent protein kinase catalytic subunit PRKX (Homo sapiens) (UniProt P51817).
T3 sequence (whole entry): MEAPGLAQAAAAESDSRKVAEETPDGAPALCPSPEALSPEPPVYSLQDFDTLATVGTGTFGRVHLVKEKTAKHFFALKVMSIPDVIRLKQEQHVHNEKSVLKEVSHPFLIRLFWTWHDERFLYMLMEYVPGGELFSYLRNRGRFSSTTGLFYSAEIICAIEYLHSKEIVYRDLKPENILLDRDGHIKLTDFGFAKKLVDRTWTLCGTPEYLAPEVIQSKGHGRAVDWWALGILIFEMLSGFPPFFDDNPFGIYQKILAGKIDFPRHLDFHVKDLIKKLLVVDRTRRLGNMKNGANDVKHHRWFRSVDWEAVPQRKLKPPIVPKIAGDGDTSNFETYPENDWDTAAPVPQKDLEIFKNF
The test can be described thus: Inhibition of PRKX (unknown origin) assessed as residual activity at 1000 nM by KINOMEscan analysis relative to control.

Sequence of AP2-associated protein kinase 1 (Homo sapiens) (Q2M2I8 whole entry, looked up): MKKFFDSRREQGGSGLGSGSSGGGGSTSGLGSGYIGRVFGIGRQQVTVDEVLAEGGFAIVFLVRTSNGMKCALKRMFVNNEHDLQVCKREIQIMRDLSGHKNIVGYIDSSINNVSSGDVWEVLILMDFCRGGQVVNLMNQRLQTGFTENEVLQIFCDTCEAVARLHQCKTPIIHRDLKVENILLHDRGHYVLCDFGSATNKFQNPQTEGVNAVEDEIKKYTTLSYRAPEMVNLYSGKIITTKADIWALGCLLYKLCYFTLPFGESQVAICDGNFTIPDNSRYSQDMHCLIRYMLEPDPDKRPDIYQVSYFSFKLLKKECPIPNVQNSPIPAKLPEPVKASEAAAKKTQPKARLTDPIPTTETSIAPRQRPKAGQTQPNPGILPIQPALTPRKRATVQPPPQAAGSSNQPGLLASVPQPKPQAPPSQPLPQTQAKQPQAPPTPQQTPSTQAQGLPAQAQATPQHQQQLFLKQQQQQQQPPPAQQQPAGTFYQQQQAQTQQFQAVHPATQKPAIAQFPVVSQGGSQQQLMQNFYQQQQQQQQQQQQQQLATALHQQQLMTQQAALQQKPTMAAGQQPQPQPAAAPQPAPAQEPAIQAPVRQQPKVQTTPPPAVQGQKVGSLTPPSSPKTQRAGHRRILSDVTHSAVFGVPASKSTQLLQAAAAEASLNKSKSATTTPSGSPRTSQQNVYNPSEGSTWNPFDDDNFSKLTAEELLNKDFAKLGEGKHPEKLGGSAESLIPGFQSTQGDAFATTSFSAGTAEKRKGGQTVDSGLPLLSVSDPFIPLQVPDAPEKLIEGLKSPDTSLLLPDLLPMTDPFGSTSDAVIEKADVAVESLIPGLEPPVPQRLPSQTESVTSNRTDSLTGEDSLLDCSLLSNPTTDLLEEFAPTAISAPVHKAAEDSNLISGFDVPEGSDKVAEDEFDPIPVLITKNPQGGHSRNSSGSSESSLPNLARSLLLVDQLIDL
Sequence of Mitogen-activated protein kinase kinase kinase 14 (Homo sapiens) (Q99558 whole entry, looked up): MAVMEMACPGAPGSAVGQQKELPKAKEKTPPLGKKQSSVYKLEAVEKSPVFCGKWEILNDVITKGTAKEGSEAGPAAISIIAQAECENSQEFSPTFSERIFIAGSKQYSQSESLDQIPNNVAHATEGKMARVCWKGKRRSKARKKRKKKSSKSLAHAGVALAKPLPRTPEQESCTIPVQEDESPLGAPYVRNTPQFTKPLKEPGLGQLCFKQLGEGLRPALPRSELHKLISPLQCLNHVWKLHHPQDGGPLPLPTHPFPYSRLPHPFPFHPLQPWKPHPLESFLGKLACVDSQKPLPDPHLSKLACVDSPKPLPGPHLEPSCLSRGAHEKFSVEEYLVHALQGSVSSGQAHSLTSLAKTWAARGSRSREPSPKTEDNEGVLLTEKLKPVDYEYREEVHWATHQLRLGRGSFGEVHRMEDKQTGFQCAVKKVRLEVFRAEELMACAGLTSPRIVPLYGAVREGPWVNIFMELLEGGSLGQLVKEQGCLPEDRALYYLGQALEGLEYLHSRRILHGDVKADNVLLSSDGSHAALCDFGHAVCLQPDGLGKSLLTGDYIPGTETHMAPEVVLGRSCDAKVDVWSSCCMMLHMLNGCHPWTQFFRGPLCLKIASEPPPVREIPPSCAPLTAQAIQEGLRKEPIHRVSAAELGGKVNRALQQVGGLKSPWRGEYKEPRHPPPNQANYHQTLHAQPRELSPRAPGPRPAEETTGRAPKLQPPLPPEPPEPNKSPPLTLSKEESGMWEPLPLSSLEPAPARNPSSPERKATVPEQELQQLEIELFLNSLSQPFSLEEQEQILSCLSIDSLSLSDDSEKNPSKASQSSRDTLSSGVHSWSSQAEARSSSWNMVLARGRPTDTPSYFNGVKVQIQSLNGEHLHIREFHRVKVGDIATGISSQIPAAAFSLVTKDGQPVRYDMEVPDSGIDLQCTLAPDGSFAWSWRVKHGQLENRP
Sequence of Serine/threonine-protein kinase N1 (Homo sapiens) (Q16512 2-942 limits assumed): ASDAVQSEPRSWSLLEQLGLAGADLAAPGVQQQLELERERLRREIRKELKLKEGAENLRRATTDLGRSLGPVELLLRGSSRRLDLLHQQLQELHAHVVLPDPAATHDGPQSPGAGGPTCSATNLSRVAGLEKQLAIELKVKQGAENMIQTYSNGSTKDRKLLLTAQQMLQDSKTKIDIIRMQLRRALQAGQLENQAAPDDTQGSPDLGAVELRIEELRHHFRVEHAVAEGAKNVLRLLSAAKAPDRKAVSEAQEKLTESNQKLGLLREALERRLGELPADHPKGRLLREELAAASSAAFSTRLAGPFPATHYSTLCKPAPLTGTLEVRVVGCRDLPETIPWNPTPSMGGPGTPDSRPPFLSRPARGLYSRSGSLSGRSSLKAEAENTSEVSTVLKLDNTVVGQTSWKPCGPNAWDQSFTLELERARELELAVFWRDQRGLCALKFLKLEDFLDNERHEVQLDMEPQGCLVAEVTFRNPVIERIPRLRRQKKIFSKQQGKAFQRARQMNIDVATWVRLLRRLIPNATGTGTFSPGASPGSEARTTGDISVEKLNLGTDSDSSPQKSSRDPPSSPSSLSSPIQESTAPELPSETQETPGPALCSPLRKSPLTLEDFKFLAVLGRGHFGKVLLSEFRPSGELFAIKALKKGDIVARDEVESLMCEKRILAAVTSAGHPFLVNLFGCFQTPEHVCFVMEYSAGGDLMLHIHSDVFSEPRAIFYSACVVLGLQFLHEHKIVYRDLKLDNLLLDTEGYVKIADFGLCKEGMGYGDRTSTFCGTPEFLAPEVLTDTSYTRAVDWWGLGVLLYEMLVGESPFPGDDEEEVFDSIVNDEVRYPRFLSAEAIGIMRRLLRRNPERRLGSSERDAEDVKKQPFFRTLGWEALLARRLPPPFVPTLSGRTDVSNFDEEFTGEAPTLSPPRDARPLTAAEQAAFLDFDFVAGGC

For the compound `COc1cc2nc(C)nc(N[C@H](C)c3cccc(-c4cn[nH]c4)c3)c2cc1OC`, the Activity in test [1] amounted to 88%; in test [2], 100%; in test [3], 100%; in test [4], 100%; in test [5] it was 82%; in test [6], 95%. The Activity was 63% in test [7]; 73% in test [8]; 97% in [9]; 71% in test [10]; 100% in test [11].
In the case of `COc1cc2ncnc(N[C@H](C)c3cccc4ccccc34)c2cc1OC`, the Activity came out at 91% in test [1]; 93% in test [2]; 100% in test [3]; 97% in [4]; 97% in test [5]; 92% in test [6]. The Activity in [7] is 96%; in [8] it was 99%; in [9] it was 87%; in test [10] it was 100%; in test [11], 96%.
